This is an account of results in patent US20250032486A1, “COMBINATION OF 5-AMINO-2,3-DIHYDRO-1,4-PHTALAZINEDIONE AND A 6'-METHOXYCINCHONAN-9-OL FOR USE IN THE TREATMENT OF CORONAVIRAL INFECTIONS” (METROPHARM AG, priority 2021, published 2025).

Counter-ions that a name gives are not always drawn. Like-named read-outs stand apart in the source and are kept apart here.

Assay [1] has as its system SARS-CoV-2. The assay is classed as cell-based.
In assay [2] the test system is SARS-CoV-2. Particulars: from WO 2021/249667 and WO 2021/219244; cited from earlier work.
For another assay, the system named is 3-nitrotyrosine. As to conditions: ex vivo lung, cigarette smoke; cited from earlier work.

Regarding `C=C[C@H]1C[N@@]2CC[C@H]1C[C@@H]2[C@@H](O)c1ccnc2ccc(OC)cc12` [quinidine sulfate], the “amount of SARS-CoV-2 RNA copies (qRT-PCR-amplified RdRp, in relation to untreated cells)” value (“amount of SARS-CoV-2 RNA copies” below) in the assay on SARS-CoV-2 [1] (Example 3, Calu-3 cells, 3 days, luminol sodium salt 500/250/125 μM, quinidine sulfate 10/1/0.1 μM, alone and combined, n=2) is recorded as “dose-dependent reduction”.
On to `C=C[C@H]1C[N@@]2CC[C@H]1C[C@H]2[C@H](O)c1ccnc2ccc(OC)cc12` [quinine sulfate], for which, in the assay on SARS-CoV-2 [1] (Example 1, Calu-3 cells, 3 days, luminol sodium salt 500/250/125 μM, quinine sulfate 10/1/0.1 μM, alone and combined, n=3), the “amount of SARS-CoV-2 RNA copies” value is reported as “dose-dependent reduction”.
As for `C=C[C@H]1CN2CC[C@H]1C[C@@H]2[C@@H](O)c1ccnc2ccc(OC)cc12` [quinidine, (+)-(9S)-6′-methoxycinchonan-9-ol], in the assay with SARS-CoV-2 [2], the “inhibition of the replication of SARS-CoV-2 in vitro” value (“inhibition” for short) is reported as “Such an effect was also described”.
As for `Nc1cccc2c(=O)[nH][nH]c(=O)c12.[Na]` [5-amino-2,3-dihydro-1,4-phthalazinedione sodium salt], the “amount of SARS-CoV-2 RNA copies” value in the assay with SARS-CoV-2 [1] was “dose-dependent reduction”. Besides, the “inhibition” value in the assay on SARS-CoV-2 [2] is reported as “dose-dependently inhibit”. In addition, in the assay on 3-nitrotyrosine, the “reduction of 3-nitrotyrosine” value was “nearly complete reduction”.
With `C=C[C@H]1CN2CC[C@H]1C[C@H]2[C@H](O)c1ccnc2ccc(OC)cc12` [quinine, (−)-(8a,9R)-6′-methoxycinchonan-9-ol], the “inhibition” value in the assay with SARS-CoV-2 [2] is “Such an effect was also described”.
